US20040229356A1, “In vitro mass production of human erythroid cells from the blood of normal donors and thalassemic patients” (ISTITUTO SUPERIORE DI SANITA, priority 2003, published 2004)

Legend:
[1] = system: CD34^+ cells; experiment: Proliferative-phase liquid culture of CD34+ cells (total cell number, benzidine staining); type: cell-based, human; conditions: day 8 of proliferative phase; estradiol or dexamethasone added to GFs (SCF, IL-3, EPO)
Description: Light-density cells were collected, washed with Hank's basal salt solution supplemented with 1% (w/v) bovine serum albumin, and either cultured directly or cryopreserved in 10% dimethyl sulfoxide (Sigma, St. Louis, Mo.). Frozen cadaveric marrow cells obtained from Northwest Tissue Center, Puget Sound Blood Bank (Seattle, Wash.) were thawed, washed, and incubated overnight in IMDM with 10% fetal calf serum on tissue culture plates to remove adherent cells. […]
Cell morphology was analyzed according to standard criteria on cytocentrifuged (Shandon, Astmoor, England) smears stained with May-Grumwald-Giemsa. […] The cell antigenic profile was analyzed by flow cytometry with a Coulter Elite ESP Cell Sorter (Coulter, Miami, Fla.) according to standard protocols. […] Cells incubated with the corresponding, irrelevant, isotype-matched antibodies were used for gating nonspecific fluorescence and dead cells were excluded by propidium iodide staining (5 μg/mL) (Sigma).
The total cell number observed in cultures of CD34^+ cells cultured for up to 14 days in the presence of the combination of SCF, IL-3 and EPO (growth factors, GFs), alone or with the further addition of estradiol or of dexamethasone, is presented in FIG. 1. In all three conditions analyzed, the total cell number per culture rose from 0.1×10^6 cells at day 0 to 10×10^6 at day 7 and continued to increase, reaching up to 100×10^6 by day 13. […]

[2] = system: CD34^+ cells; experiment: Differentiative-phase culture (EPO and insulin, 5 additional days) of cells harvested from the proliferative phase, benzidine staining; type: cell-based, human; conditions: for frequency of benzidine^pos cells after differentiative phase: independent of priming duration (either 8 or 13 days) with GFs plus the steroid, then EPO and insulin
Description: Light-density cells and CD34^+ cells were cultured for the proliferative phase in Iscove's modified Dulbecco's medium (IMDM, Mascia Brunelli, Milan, Italy) containing 20% of fetal bovine serum (FBS, Hyclone, Logan, Utah) and supplemented with Stem Cell Factor (SCF, 10 ng/mL) (Amgen, Thousand Oaks, Calif.), Erythropoietin (EPO, 1 u/mL) (Epoetina alfa, Dompe Biotec, Milan, Italy), Interleukin-3 (IL-3, 1 ng/mL) (Bouty, Milan, Italy), dexamethasone (10^−6 M) (Sigma), and estradiol (10^−6 M) (Sigma). Light-density and CD34^+ cells were seeded at a concentration of 10^6 and 10^5 cells/mL, respectively.
Cell morphology was analyzed according to standard criteria on cytocentrifuged (Shandon, Astmoor, England) smears stained with May-Grumwald-Giemsa. Hemoglobin-containing cells were identified by benzidine staining (S. H. Orkin, Proc. Natl. Acad. Sci. USA 72, 98-102 (1975)). The cell antigenic profile was analyzed by flow cytometry with a Coulter Elite ESP Cell Sorter (Coulter, Miami, Fla.) according to standard protocols. […] Cells incubated with the corresponding, irrelevant, isotype-matched antibodies were used for gating nonspecific fluorescence and dead cells were excluded by propidium iodide staining (5 μg/mL) (Sigma).
The total cell number observed in cultures of CD34^+ cells cultured for up to 14 days in the presence of the combination of SCF, IL-3 and EPO (growth factors, GFs), alone or with the further addition of estradiol or of dexamethasone, is presented in FIG. 1. In all three conditions analyzed, the total cell number per culture rose from 0.1×10^6 cells at day 0 to 10×10^6 at day 7 and continued to increase, reaching up to 100×10^6 by day 13. […] The total number of erythroid cells obtained at the end of the proliferative-plus-differentiative phase can be calculated by multiplying the total number of cells presented in FIG. 1 by the frequency of benzidinepos cells presented in FIG. 2. […]

| Compound | percent of benzidine positive cells (mature erythroid cells) [1] [%] | total number of erythroid cells obtained at end of proliferative-plus-differentiative phase ([2]; differentiation started at day 8 of proliferative phase, total cell number multiplied by benzidine^pos frequency) | frequency of benzidine^pos cells after differentiative phase [2] |
| --- | --- | --- | --- |
| C[C@@H]1C[C@H]2[C@@H]3CCC4=CC(=O)C=C[C@]4(C)[C@@]3(F)[C@@H](O)C[C@]2(C)[C@@]1(O)C(=O)CO [dexamethasone] | < 10 | ≤ 7×10^6 erythroid cells | 80-95% |
| C[C@]12CC[C@@H]3c4ccc(O)cc4CC[C@H]3[C@@H]1CC[C@@H]2O [estradiol] |  |  | 40-60% |
